Experiments:
Assay in all cases: fluorescence light-up, plate reader
Conditions in all cases: 100 mM K+ (KCl); 20 mM Tris-HCl, pH 7.8; 5 µM dye, 5 µM oligonucleotide; not an affinity constant
[1] = system: TBA31 (DNA, G4) CACTGGTAGGTTGGTGTGGTTGGGGCCAGTG
[2] = system: TBA15 (DNA, G4) GGTTGGTGTGGTTGG
[3] = system: TBA25 (DNA, G4) TGGTAGGTTGGTGTGGTTGGGGCCA
[4] = system: ON31 (RNA, G4) CACUGGUAGGUUGGUGUGGUUGGGGCCAGUG
[5] = system: ON15 (RNA, G4) GGUUGGUGUGGUUGG
[6] = system: Tel23a (DNA, G4) AGGGTTAGGGTTAGGGTTAGGGT
[7] = system: TBA63 (DNA, G4) ATAAAATAAAAAATTACACTGGTAGGTTGGTGTGGTTGGGGCCAGTGTAATTTTTTATTTTAT
[8] = system: ON1+2 (ON1-ON2 duplex) (DNA, duplex) ATAAAATAAAAAATTACACTGG/CCAGTGTAATTTTTTATTTTAT

Row | Fluorescence Intensity Enhancement [1] | Fluorescence Intensity Enhancement [2] | Fluorescence Intensity Enhancement [3] | Fluorescence Intensity Enhancement [4] | Fluorescence Intensity Enhancement [5] | Fluorescence Intensity Enhancement [6] | Structure (SMILES) | also measured
1 | 7.4 ± 0.08 fold | 2.0 ± 0.08 fold | – | – | – | – | CN1C(=O)/C(=C/c2ccc(O)cc2)N=C1/C=C/c1ccc(Br)cc1 | –
2 | – | – | – | 2.5 ± 0.03 fold | – | – | CN1C(=O)/C(=C/c2ccc(O)cc2)N=C1/C=C/c1ccc(C(F)(F)F)cc1 | –
3 | 12.3 ± 0.13 fold | – | 20.6 ± 0.29 fold | – | – | – | CN1C(=O)/C(=C/c2ccc(O)cc2)N=C1/C=C/c1ccc(N(C)C)cc1 | –
4 | – | – | 23.0 ± 0.25 fold | – | – | – | CN1C(=O)/C(=C/c2ccc(O)cc2)N=C1/C=C/c1ccccc1F | –
5 | – | – | 8.7 ± 0.17 fold | – | 6.1 ± 0.10 fold | – | CN1C(=O)/C(=C/c2ccc(O)cc2)N=C1C(=O)c1ccccc1 | –

Second part, the compound before the results:

Row | Structure (SMILES) | Fluorescence Intensity Enhancement [1] | Fluorescence Intensity Enhancement [2] | Fluorescence Intensity Enhancement [3] | Fluorescence Intensity Enhancement [4] | Fluorescence Intensity Enhancement [5] | Fluorescence Intensity Enhancement [6] | also measured
6 | CC(=O)C1=N/C(=C\c2c[nH]c3ccccc23)C(=O)N1C | 20.5 ± 0.22 fold | 2.9 ± 0.11 fold | 31.7 ± 0.40 fold | 19.0 ± 0.25 fold | 7.1 ± 0.09 fold | 7.1 ± 0.16 fold | –
7 | CN1/C(=C/c2cc[n+](C)cc2)Sc2ccccc21 | – | – | – | – | – | – | binding [4]: yes; binding [5]: yes
8 | CN1C(=O)/C(=C/c2ccccc2)N=C1Nc1ccccc1 | – | – | – | 11.0 ± 0.13 fold | 4.7 ± 0.11 fold | – | –
9 | COc1cc(/C=C2N=C(/C=C/c3ccncc3)N(C)C\2=O)cc(OC)c1O | 16.5 ± 0.18 fold | 3.3 ± 0.13 fold | – | 6.8 ± 0.13 fold | – | 6.2 ± 0.12 fold | –
10 | Cc1ccc(/C(O)=C/C2=NC(=C\c3ccc(O)cc3)/C(=O)N2C)cc1 | 18.8 ± 0.28 fold | 2.1 ± 0.12 fold | 19.1 ± 0.21 fold | – | – | 12.4 ± 0.19 fold | Fluorescence Intensity Enhancement [7]: 12.1 ± 0.15 fold; Fluorescence Intensity Enhancement [8]: 4.0 ± 0.09 fold
